# Measurements: ChEMBL document CHEMBL3137381, “MMV Box Onchocerca lienalis screening set”
# Columns and labels:
# Format in all cases: functional
# Onchocerca lienalis [1] = assay: MMV: Percent motility assay at a compound concentration of 1.9e-7 M. Activity score legend: 3: Active, 2: Moderately active; 1: Inactive, 0: Toxic; conditions: at 0.19 µM
# Onchocerca lienalis [2] = assay: MMV: Percent motility assay at a compound concentration of 7.8e-7 M. Activity score legend: 3: Active, 2: Moderately active; 1: Inactive, 0: Toxic; conditions: at 0.78 µM
# Onchocerca lienalis [3] = assay: MMV: Percent motility assay at a compound concentration of 1.25e-5 M. Activity score legend: 3: Active, 2: Moderately active; 1: Inactive, 0: Toxic; conditions: at 12.5 µM
# Onchocerca lienalis [4] = assay: MMV: Percent motility assay at a compound concentration of 3.1e-6 M. Activity score legend: 3: Active, 2: Moderately active; 1: Inactive, 0: Toxic; conditions: at 3.1 µM
SMILES,Motility (Onchocerca lienalis [1]),Motility (Onchocerca lienalis [2]),Motility (Onchocerca lienalis [3]),Motility (Onchocerca lienalis [4])
CN1CCN(c2ccc(Nc3c4ccccc4nc4ccccc34)cc2)CC1,100%,100%,100%,100%
CN(C)CCCNc1c2ccccc2nc2ccccc12,100%,100%,100%,100%
COc1ccc(-c2c(C)nn3c(N)c(C#N)cnc23)cc1OC,100%,100%,100%,100%
CSC1=NC(=Nc2c(C)cccc2C)C2(CCC(C(C)(C)C)CC2)N1c1ccc(Cl)cc1 (stereo not drawn),100%,100%,100%,100%
Cc1cc(C)cc(Nc2cc(C)nc3nc(C(F)(F)F)nn23)c1,100%,100%,100%,100%
O=C(NCC(c1ccsc1)N1CCCCCC1)c1ccc(C(F)(F)F)cc1 (stereo not drawn),100%,100%,100%,100%
COc1ccc(-c2cc3c(SCC(=O)Nc4cc(C(F)(F)F)ccc4Cl)nccn3n2)cc1,100%,100%,100%,100%
Cc1ccc(-c2cc3c(SCC(=O)Nc4cc(C(F)(F)F)ccc4Cl)nccn3n2)cc1,100%,100%,100%,100%
CCN(CC)CCNc1ccnc2cc(Cl)ccc12,100%,100%,100%,100%
CCCCCC(=O)N1c2ccccc2N=C2CC(c3ccc(OC)c(OC)c3)CC(O)=C2C1c1ccc(C(F)(F)F)cc1 (stereo not drawn),100%,100%,100%,100%
Cc1cc(Nc2ccc3ccccc3c2)n2ncnc2n1,100%,100%,100%,100%
Cc1cc(NCCN2CCCCC2)c2ccc3ccccc3c2n1,100%,100%,100%,100%
COc1ccc(-c2nc(NC(=O)CS(=O)(=O)c3ccc(F)cc3)sc2C)cc1,100%,100%,100%,100%
O=C(O)C1Cc2c([nH]c3ccccc23)C(c2ccc(Cl)cc2Cl)N1 (stereo not drawn),100%,100%,100%,100%
Cc1ccc(N2C(=O)C3C(C2=O)C2(c4ccccc4)C(=O)C3(c3ccccc3)C(c3ccccc3)=C2c2ccccc2)cc1 (stereo not drawn),100%,100%,100%,100%
CCc1c(C)c(=N)c2ccccc2n1C.I,100%,100%,100%,100%
COc1cccc(NC(=O)[C@H](C(C)C)n2c(=O)[nH]c3ccccc3c2=O)c1,100%,100%,100%,100%
CCOC(=O)c1cn(CC)c2cc(N(C)CCc3ccc(OC)c(OC)c3)c(F)cc2c1=O,100%,100%,100%,100%
CCC(c1ccccc1)c1nn2c(-c3cccs3)nnc2s1 (stereo not drawn),100%,100%,100%,100%
CC(C)(C)c1ccc(O)c(CNC2CCCCC2)c1,100%,100%,100%,100%
O=[N+]([O-])c1ccc(C=NNc2nc3ccccc3[nH]2)cc1,100%,100%,100%,100%
CC1CN(C(=O)c2sc3ccccc3c2Cl)CC(C)O1 (stereo not drawn),100%,100%,100%,100%
CN(C)c1ccc(C=Cc2nc(=O)c3ccccc3o2)cc1,100%,100%,100%,100%
COc1ccc(C2=C(c3ccc(OC)cc3)C3(c4ccccc4)C(=O)C2(c2ccccc2)C2C(=O)N(c4ccc(C)cc4)C(=O)C23)cc1 (stereo not drawn),100%,100%,100%,100%
CCOC(=O)c1c(NC(=O)c2ccccc2)sc2c(O)c(CN(CC)CC)ccc12,100%,100%,100%,100%
CCOC(=O)C1=C(c2ccccc2)N=c2sc(=Cc3cc(C)n(-c4ccc(F)cc4)c3C)c(=O)n2C1c1cccc(OC)c1OC (stereo not drawn),100%,100%,100%,100%

SMILES,Motility (Onchocerca lienalis [1]),Motility (Onchocerca lienalis [2]),Motility (Onchocerca lienalis [3]),Motility (Onchocerca lienalis [4])
CCC1(C)CC(CCNCc2ccccc2O)(c2ccc(C)cc2)CCO1 (stereo not drawn),100%,100%,100%,100%
OC(CNC1CCCCC1)Cn1c2ccccc2c2ccccc21 (stereo not drawn),100%,100%,60%,100%
Cc1cc(Nc2ccc(C)c(Cl)c2)n2nc(C(F)(F)F)nc2n1,100%,100%,100%,100%
CCCN(CCC)CC(O)COc1ccccc1C(=O)Nc1ccccc1 (stereo not drawn),100%,100%,100%,100%
Fc1ccc2[nH]c3c(NCCCN4CCOCC4)ncnc3c2c1,100%,100%,100%,100%
COc1ccc(C=C2SC(=N)N(c3ccccc3OC)C2=O)cc1,100%,100%,100%,100%
COc1ccc(NC(=O)C2c3ccccc3C(=O)N(CC(C)C)C2c2cccs2)cc1Cl (stereo not drawn),100%,100%,100%,100%
CCOC(=O)c1c(C)n(-c2ccc(Cl)cc2)c2ccc(OC(=O)C=Cc3ccccc3)cc12,100%,100%,100%,100%
C=CC12CCN(CC1)C(C(O)c1ccnc3ccc(OC)cc13)C2.Cl (stereo not drawn),100%,100%,100%,100%
Cc1cccc(Nc2nc(N)c3ccccc3n2)c1.Cl,100%,100%,100%,100%
CCn1c(CN2CCN(Cc3ccccc3)CC2)nc2cc(NC(=O)c3cccs3)ccc21,100%,100%,100%,100%
COc1ccccc1CNC(=O)CCn1c(=O)[nH]c2ccccc2c1=O,100%,100%,100%,100%
Cc1cc(C)c2c(c1)OCN(Cc1ccccc1Cl)C2,100%,100%,100%,100%
COc1cc(OC)c(N(C)C(=O)c2cc3c(s2)-c2ccccc2S(=O)(=O)C3)cc1Cl,100%,100%,100%,100%
Cl.Oc1ccccc1CNCC12CC3CC(CC(C3)C1)C2,100%,100%,100%,100%
CNCCCNc1ccnc2cc(Cl)ccc12,100%,100%,100%,100%
COc1ccccc1CNC(=O)CCn1c(=O)[nH]c2ccsc2c1=O,100%,100%,100%,100%
COc1ccc(Br)cc1C1Nc2ccc3ccccc3c2C2=C1C(=O)CC(c1ccccc1)C2 (stereo not drawn),100%,100%,66.66%,100%
Cc1cc(C=C2SC(=Nc3ccccc3)N(C3CCCC3)C2=O)c(C)n1-c1ccc(Cl)cc1,100%,100%,100%,100%
CC1CCN(Cc2ccc(NC(=O)c3cc4ccc5cccnc5c4[nH]3)cc2)CC1,100%,100%,100%,100%
CCc1ccc(Nc2cc(C)c3ccc(O)cc3n2)cc1.Cl,100%,100%,66.66%,100%
CSc1ccccc1C(=O)Nc1nc(-c2ccccn2)cs1,100%,100%,33.33%,100%
COc1ccc(C(C)=O)cc1N1C(=O)C2C(C1=O)C1(c3ccccc3)C(=O)C2(c2ccccc2)C(c2ccc(C)cc2)=C1c1ccc(C)cc1 (stereo not drawn),100%,100%,100%,100%
CCCc1c(CC)c(=N)c2ccccc2n1C,100%,100%,100%,100%
CCOC(=O)c1cnc2c(C)cc(C)cc2c1Nc1ccc(OC)c(OC)c1,100%,100%,100%,100%
c1ccc(Cn2c(N=Nc3c(Nc4ccccc4)ccc4ccccc34)nc3ccccc32)cc1,100%,100%,100%,100%
